{"source": "patent US4943629A", "about": "“Antidiabetic alpha-substituted phosphonates” (American Cyanamid Company, priority 1988, dated 1990)", "key": {"[1]": {"molecular_target": "T1, purified rat liver 6-phosphofructo-1-kinase (Rattus norvegicus, UniProt P30835)", "T1 construct": "purified rat liver 6-phosphofructo-1-kinase; from tissue; host or cells: rat liver", "T1 sequence (P30835 2-780 limits assumed)": "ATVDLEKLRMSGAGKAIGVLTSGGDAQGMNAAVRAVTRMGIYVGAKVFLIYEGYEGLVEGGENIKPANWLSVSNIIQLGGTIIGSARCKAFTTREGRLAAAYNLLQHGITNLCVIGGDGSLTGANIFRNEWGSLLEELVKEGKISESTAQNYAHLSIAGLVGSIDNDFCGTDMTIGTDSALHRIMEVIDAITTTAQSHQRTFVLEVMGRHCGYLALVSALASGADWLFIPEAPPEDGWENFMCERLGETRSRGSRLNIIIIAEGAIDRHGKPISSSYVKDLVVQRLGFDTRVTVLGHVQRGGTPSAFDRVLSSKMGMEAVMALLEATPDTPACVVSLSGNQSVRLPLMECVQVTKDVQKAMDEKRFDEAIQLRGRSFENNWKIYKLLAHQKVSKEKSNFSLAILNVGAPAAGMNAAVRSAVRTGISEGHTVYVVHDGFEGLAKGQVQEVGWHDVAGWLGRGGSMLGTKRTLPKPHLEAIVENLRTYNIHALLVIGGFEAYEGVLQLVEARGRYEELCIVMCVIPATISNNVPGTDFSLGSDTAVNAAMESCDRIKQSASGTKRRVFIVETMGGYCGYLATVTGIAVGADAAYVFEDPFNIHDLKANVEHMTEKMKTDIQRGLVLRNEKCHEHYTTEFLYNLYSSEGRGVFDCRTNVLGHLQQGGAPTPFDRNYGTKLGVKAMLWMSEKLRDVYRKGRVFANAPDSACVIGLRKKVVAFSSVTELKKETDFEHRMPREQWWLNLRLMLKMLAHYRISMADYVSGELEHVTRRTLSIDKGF", "assay": "stimulation of 6-phosphofructo-1-kinase (PFK), aldolase-coupled spectrophotometric assay", "type": "biochemical", "conditions": "pH 7.3, 30° C., 1 mM ATP, 0.2 mM fructose-6-phosphate, read-out: PFK ED50", "procedure": "(§1) The novel compounds of this invention were tested for their ability to stimulate the enzyme 6-phosphofructo-1-kinase (\"PFK\") and for their ability to inhibit the enzyme fructose-1,6-bisphosphatase (\"FBP\") using the procedures described below.\nEffects on the activity of PFK were determined using an aldolase-coupled, spectrophotometric assay. The assay mixture contained: 50 mM N-tris(hydroxymethyl) methyl-2-aminoethanesulfonic acid, hydrochloride (\"TES-HCl\", pH 7.3); 1 mM ethylenediaminetetraacetic acid (\"EDTA\"); 6 mM magnesium chloride; 2.5 mM dithiothreitol; 0.165 mM nicotinamide adenine dinucleotide (\"NADH\"); 1 mM adenosine triphosphate (\"ATP\"); 0.04U aldolase; 0.4U triose phosphate isomerase; 1.5U alpha-glycerolphosphate dehydrogenase; 0.lU of purified rat liver 6-phosphofructo-1-kinase; and various concentrations of the test compound, all in a final volume of 1 ml. The mixture was preincubated for 3 minutes at 30° C. and then the reaction was initiated with 0.2 mM fructose-6-phosphate. The rate of decrease in absorbance at 340 nm was measured at 30° C. with a recording spectrophotometer."}, "[2]": {"molecular_target": "T2, purified rat liver FBP (fructose-1,6-bisphosphatase) (Rattus norvegicus, UniProt P19112)", "T2 construct": "purified rat liver FBP; from tissue; host or cells: rat liver", "T2 sequence (P19112 2-363 limits assumed)": "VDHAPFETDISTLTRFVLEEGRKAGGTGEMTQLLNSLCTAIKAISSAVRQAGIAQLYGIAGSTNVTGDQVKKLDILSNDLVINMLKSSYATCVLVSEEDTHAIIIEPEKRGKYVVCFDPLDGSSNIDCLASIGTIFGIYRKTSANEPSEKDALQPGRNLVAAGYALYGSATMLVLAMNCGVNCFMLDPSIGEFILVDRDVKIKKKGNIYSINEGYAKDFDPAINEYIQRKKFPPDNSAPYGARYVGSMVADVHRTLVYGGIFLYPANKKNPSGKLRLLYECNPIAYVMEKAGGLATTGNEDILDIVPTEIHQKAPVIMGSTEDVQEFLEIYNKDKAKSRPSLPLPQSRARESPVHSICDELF", "assay": "inhibition of fructose-1,6-bisphosphatase (FBP), spectrophotometric assay", "type": "biochemical", "conditions": "pH 7.4, 30° C., 0.02 mM fructose-1,6-bis-phosphate", "procedure": "as §1\nEffects on the activity of FBP were determined using a spectrophotometric assay. The assay mixture contained: 100 mM tris(hydroxymethyl)aminomethane, hydrochloride (\"TRIS-HCl\", pH 7.4); 2.5 mM beta-mercaptoethanol; 2 mM magnesium chloride; 0.05 mM EDTA; 0.2 mM nicotinamide adenine dinucleotide phosphate (\"NADP\"); 10 U phosphoglucose isomerase; 5 U glucose-6-phosphate dehydrogenase; 0.02U of purified rat liver FBP; and various concentrations of the test compound, all in a final volume of 1 ml. The mixture was preincubated for 3 minutes at 30° C. and then the reaction was initiated with 0.02 mM fructose-1,6-bis-phosphate. The rate of increase in absorbance at 340 nm was measured at 30° C. with a recording spectrophotometer"}}}
{"smiles": "O=P(O)(O)OC[C@H]1OC(C(F)P(=O)(O)O)[C@@H](O)[C@@H]1O", "note": "(mixture of isomers) [2,5-Anhydro-1-deoxy-1-fluoro-1-phosphono-D-glucitol and D-mannitol, 6-(dihydrogen phosphate) mixture (70:30)]", "values": [{"measurement": "EC50", "setting": "[1]", "value": 10, "unit": "µM"}, {"measurement": "IC50", "setting": "[2]", "value": 54, "unit": "µM"}]}
{"smiles": "O=P(O)(O)OC[C@H]1O[C@@](CO)(C(F)P(=O)(O)O)[C@@H](O)[C@@H]1O", "note": "(single isomer, unassigned) [2,5-Anhydro-1-deoxy-1-fluoro-2-(hydroxymethyl)-1-phosphono-D-glucitol, 6-(dihydrogen phosphate)]", "values": [{"measurement": "EC50", "setting": "[1]", "value": 0.7, "unit": "µM"}, {"measurement": "IC50", "setting": "[2]", "value": 110, "unit": "µM"}]}
{"smiles": "O=P(O)(O)OC[C@H]1O[C@H](C(F)(F)P(=O)(O)O)[C@@H](O)[C@@H]1O", "note": "[2,5-Anhydro-1-deoxy-1,1-difluoro-1-phosphono-D-mannitol, 6-(dihydrogen phosphate)]", "values": [{"measurement": "EC50", "setting": "[1]", "value": 14, "unit": "µM"}, {"measurement": "IC50", "setting": "[2]", "value": 226, "unit": "µM"}]}
{"smiles": "O=P(O)(O)OC[C@H]1O[C@H](C(F)P(=O)(O)O)[C@@H](O)[C@@H]1O", "note": "(stereo partly drawn) [2,5-Anhydro-1-deoxy-1-fluoro-1-phosphono-D-mannitol, 6-(dihydrogen phosphate)]", "values": [{"measurement": "EC50", "setting": "[1]", "value": 22, "unit": "µM"}, {"measurement": "IC50", "setting": "[2]", "value": 114, "unit": "µM"}]}
{"smiles": "O=P(O)(O)OC[C@H]1O[C@](CO)(C(F)P(=O)(O)O)[C@@H](O)[C@@H]1O", "note": "(stereo partly drawn) [2,5-Anhydro-2-C-(fluorophosphonomethyl)-D-glucitol, 6-(dihydrogen phosphate)]", "values": [{"measurement": "EC50", "setting": "[1]", "value": 1.3, "unit": "µM"}, {"measurement": "IC50", "setting": "[2]", "value": 378, "unit": "µM"}]}
{"smiles": "O=P(O)(O)OC[C@H]1O[C@](CO)(C(O)P(=O)(O)O)[C@@H](O)[C@@H]1O", "note": "(stereo partly drawn) [2,5-Anhydro-2-C-(hydroxyphosphonomethyl)-D-glucitol, 6-(dihydrogen phosphate)]", "values": [{"measurement": "EC50", "setting": "[1]", "value": 20, "unit": "µM"}, {"measurement": "IC50", "setting": "[2]", "value": 393, "unit": "µM"}]}
{"smiles": "O=P(O)(O)OC[C@H]1O[C@H](CC(F)(F)P(=O)(O)O)[C@@H](O)[C@@H]1O", "note": "[3,6-Anhydro-1,2-dideoxy-1,1-difluoro-1-phosphono-D-manno-heptitol, 7-(dihydrogen phosphate)]", "values": [{"measurement": "EC50", "setting": "[1]", "value": 3, "unit": "µM"}, {"measurement": "IC50", "setting": "[2]", "value": 27, "unit": "µM"}]}
{"smiles": "O=P(O)(O)OC[C@H]1O[C@H](CC(F)P(=O)(O)O)[C@@H](O)[C@@H]1O", "note": "(stereo partly drawn) [[1R(and 1S)]-3,6-Anhydro-1,2-dideoxy-1-fluoro-1-phosphono-D-manno-heptitol, 7-(dihydrogen phosphate)]", "values": [{"measurement": "EC50", "setting": "[1]", "value": 1.3, "unit": "µM"}, {"measurement": "IC50", "setting": "[2]", "value": 61, "unit": "µM"}]}
{"smiles": "O=P(O)(O)OC[C@H]1O[C@H](C(O)P(=O)(O)O)[C@@H](O)[C@@H]1O", "note": "(stereo partly drawn) [[1R(and/or 1S)]-2,5-Anhydro-1-C-phosphono-D-mannitol, 6-(dihydrogen phosphate)]", "values": [{"measurement": "EC50", "setting": "[1]", "value": 13, "unit": "µM"}, {"measurement": "IC50", "setting": "[2]", "value": 44, "unit": "µM"}]}
{"smiles": "O=P(O)(O)OC[C@H]1O[C@H](CC(O)P(=O)(O)O)[C@@H](O)[C@@H]1O", "note": "(stereo partly drawn) [[1R(and/or 1S)]-3,6-Anhydro-2-deoxy-1-phosphono-D-manno-heptitol, 7-(dihydrogen phosphate)]", "values": [{"measurement": "EC50", "setting": "[1]", "value": 1, "unit": "µM"}, {"measurement": "IC50", "setting": "[2]", "value": 62, "unit": "µM"}]}
